Assay results as given in the supplement of paper PMC11208160.

Experiment: recombinant barcode read abundance after kanamycin selection (control-corrected) (log10(CPM+1)); higher = more efficient recombination; sequences stand for … in AGTGCAGAGAAAATCGGCCAGTTTTCTCTGCCTGCAGTCCGCATGCCGT…AGATTTATGCAGCGGACTGCCTTTCTCCCAAAGTGATAAACCGGACAGTATCATGGACCGGTTTTCCCGGTAATCCGTATTTGCAAGGTTGGTTTCACT; site = the 11-nt target
In short: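 In a pooled screen in E. coli, targets were paired with target-binding loops of the IS621 bridge RNA. Each oligo carried a promoter, a target, a barcode and the first 104 bridge RNA bases driven by J23119, and was Gibson-cloned into a vector holding the remaining 73 bp and a T7-inducible recombinase before co-electroporation with a donor plasmid. Duplicate platings went onto chloramphenicol/ampicillin LB agar as the control or onto chloramphenicol/ampicillin/kanamycin with 0.1 mM IPTG. Recombination efficiency is the averaged, control-corrected count per million of barcodes at recombinant junctions, given as log10(CPM+1).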
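Further: IS621 recombinase and bridge RNA in Escherichia coli cells.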

Sequence	recombinant barcode read abundance (log10)
GTTTGGACTTGGGTTCTAACCTGTTGCAG (site GTTTGGACTCT)	1.11
GTTTGGACTTGGGTTCTAACCTGTTGCTG (site GTTTGGACTCA)	1.06
GTTTGGACTTGGGTTCTAACCTGTTGCTG (site GTTTGGACTTA)	0.195
TAAAAGACTTGGGTTCTAACCTGTTGCCT (site TAAAAGACTAG)	0.307
TAAAAGACTTGGGTTCTAACCTGTTGCCT (site TAAAAGCCTAG)	0.0498
TAAAAGACTTGGGTTCTAACCTGTTGCCT (site TAAAAGGCTAG)	0.311
TAAAAGACTTGGGTTCTAACCTGTTGCCT (site TAAAAGTCTAG)	0.178
TAAAAGTCTTGGGTTCTAACCTGTTGCCT (site TAAAAGACTAG)	0.108
TAAAAGTCTTGGGTTCTAACCTGTTGCCT (site TAAAAGCCTAG)	0.0186
TAAAAGTCTTGGGTTCTAACCTGTTGCCT (site TAAAAGGCTAG)	0.0795
TAAAAGTCTTGGGTTCTAACCTGTTGCCT (site TAAAAGTCTAG)	0.696
TAAAGTACTTGGGTTCTAACCTGTTGCTT (site TAAAGTACTAA)	0.467
TAAAGTACTTGGGTTCTAACCTGTTGCTT (site TAACGTACTAA)	0.0583
TAAAGTACTTGGGTTCTAACCTGTTGCTT (site TAAGGTACTAA)	0.017
TAAAGTACTTGGGTTCTAACCTGTTGCTT (site TAATGTACTAA)	0.0546
TAACACTCTTGGGTTCTAACCTGTTGCCT (site TAACACTCTAG)	2
TAACACTCTTGGGTTCTAACCTGTTGCCT (site TCACAGTCTAG)	0.19
TAACAGTCTTGGGTTCTAACCTGTTGCGT (site TAACAGTCTAC)	2.85
TAACAGTCTTGGGTTCTAACCTGTTGCGT (site TAACCGTCTAT)	0.246
TAACCGTCTTGGGTTCTAACCTGTTGCAT (site TAACAGTCTAC)	0.179
TAACCGTCTTGGGTTCTAACCTGTTGCAT (site TAACCGTCTAT)	0.286
TAACCTACTTGGGTTCTAACCTGTTGCCT (site TAACCTACTAG)	0.442

Sequence	recombinant barcode read abundance (log10)
TAACCTACTTGGGTTCTAACCTGTTGCCT (site TAACCTCCTAG)	0.055
TAACCTACTTGGGTTCTAACCTGTTGCCT (site TAACCTGCTAG)	0.0455
TAACCTACTTGGGTTCTAACCTGTTGCCT (site TAACCTTCTAG)	0.0774
TAACCTACTTGGGTTCTAACCTGTTGCTA (site GGTGAGGCTAT)	0.0991
TAACCTACTTGGGTTCTAACCTGTTGCTA (site TAACCTACTTA)	0.864
TAACCTCCTTGGGTTCTAACCTGTTGCCT (site TAACCTACTAG)	0.0181
TAACCTCCTTGGGTTCTAACCTGTTGCCT (site TAACCTCCTAG)	0.444
TAACCTCCTTGGGTTCTAACCTGTTGCCT (site TAACCTGCTAG)	0.0867
TAACCTCCTTGGGTTCTAACCTGTTGCCT (site TAACCTTCTAG)	0.127
TAACGACCTTGGGTTCTAACCTGTTGCCT (site AAACGACCTAG)	0
TAACGACCTTGGGTTCTAACCTGTTGCCT (site CAACGACCTAG)	0.055
TAACGACCTTGGGTTCTAACCTGTTGCCT (site GAACGACCTAG)	0.0956
TAACGACCTTGGGTTCTAACCTGTTGCCT (site TAACGACCTAG)	1.42
TAACGGCCTTGGGTTCTAACCTGTTGCCT (site TAACGGCCTAG)	0.539
TAACGGCCTTGGGTTCTAACCTGTTGCCT (site TACCGGCCTAG)	0.504
TAACGGCCTTGGGTTCTAACCTGTTGCCT (site TAGCGGCCTAG)	0.198
TAACGGCCTTGGGTTCTAACCTGTTGCCT (site TATCGGCCTAG)	0.0776
TAACGTCCTTGGGTTCTAACCTGTTGCGT (site TAACGTACTCC)	0.0665
TAACGTCCTTGGGTTCTAACCTGTTGCGT (site TAACGTCCTAC)	1.4
TAACGTTCTTGGGTTCTAACCTGTTGCCT (site TAACGTTCTAG)	0.385
TAACGTTCTTGGGTTCTAACCTGTTGCCT (site TACCGTTCTAG)	0.0273
TAAGATCCTTGGGTTCTAACCTGTTGCCT (site TAAGATCCTAG)	1.63

Sequence	recombinant barcode read abundance (log10)
TAAGATCCTTGGGTTCTAACCTGTTGCCT (site TAGGCTCCTAG)	0.0611
TAAGCTACTTGGGTTCTAACCTGTTGCTG (site TAAGCCTCTCA)	0.0237
TAAGCTACTTGGGTTCTAACCTGTTGCTG (site TAAGCTACTCA)	0.885
TACAATTCTTGGGTTCTAACCTGTTGCAT (site GGGCTCCCTCG)	0.0564
TACAATTCTTGGGTTCTAACCTGTTGCAT (site TACAATTCTAT)	0.03
TACAGCCCTTGGGTTCTAACCTGTTGCCT (site TACAGCCCTAG)	0.932
TACAGCCCTTGGGTTCTAACCTGTTGCCT (site TTCAGCCCTAG)	0.183
TACAGTACTTGGGTTCTAACCTGTTGCCT (site AACAGTACTAG)	0.0317
TACAGTACTTGGGTTCTAACCTGTTGCCT (site CACAGTACTAG)	0.326
TACAGTACTTGGGTTCTAACCTGTTGCCT (site GACAGTACTAG)	0.325
TACAGTACTTGGGTTCTAACCTGTTGCCT (site TACAGTACTAG)	0.291
TACATCCCTTGGGTTCTAACCTGTTGCCG (site TACATCCCTAG)	0.0934
TACATCCCTTGGGTTCTAACCTGTTGCCG (site TACATCCCTCG)	0.623
TACATCCCTTGGGTTCTAACCTGTTGCCG (site TACATCCCTGG)	0.0502
TACATCCCTTGGGTTCTAACCTGTTGCCG (site TACATCCCTTG)	0.0738
TACCAGACTTGGGTTCTAACCTGTTGCCT (site TACCAGACTAG)	1.26
TACCAGACTTGGGTTCTAACCTGTTGCCT (site TACCCGACTAG)	0.033
TACCAGACTTGGGTTCTAACCTGTTGCCT (site TACCGGACTAG)	0.191
TACCAGACTTGGGTTCTAACCTGTTGCCT (site TACCTGACTAG)	0.0512
TACCCTTCTTGGGTTCTAACCTGTTGCGT (site CCTAAGCCTCA)	0.0691
TACCCTTCTTGGGTTCTAACCTGTTGCGT (site TACCCTTCTAC)	1.84
TACCGGACTTGGGTTCTAACCTGTTGCCT (site TACCAGACTAG)	0.252

Sequence	recombinant barcode read abundance (log10)
TACCGGACTTGGGTTCTAACCTGTTGCCT (site TACCCGACTAG)	0.139
TACCGGACTTGGGTTCTAACCTGTTGCCT (site TACCGGACTAG)	1.56
TACCGGACTTGGGTTCTAACCTGTTGCCT (site TACCTGACTAG)	0.0144
TACCGGTCTTGGGTTCTAACCTGTTGCTT (site TACCAGTCTAA)	0.18
TACCGGTCTTGGGTTCTAACCTGTTGCTT (site TACCCGTCTAA)	0.13
TACCGGTCTTGGGTTCTAACCTGTTGCTT (site TACCGGTCTAA)	1.46
TACCGGTCTTGGGTTCTAACCTGTTGCTT (site TACCTGTCTAA)	0.00501
TACCTAACTTGGGTTCTAACCTGTTGCTT (site GGTTCCTCTCC)	0.206
TACCTAACTTGGGTTCTAACCTGTTGCTT (site TACCTAACTAA)	0.0655
TACCTGCCTTGGGTTCTAACCTGTTGCGT (site GCCCTGCCTAC)	0.0159
TACCTGCCTTGGGTTCTAACCTGTTGCGT (site TACCTGCCTAC)	1.27
TACCTGTCTTGGGTTCTAACCTGTTGCTT (site TACCAGTCTAA)	0.139
TACCTGTCTTGGGTTCTAACCTGTTGCTT (site TACCCGTCTAA)	0.251
TACCTGTCTTGGGTTCTAACCTGTTGCTT (site TACCGGTCTAA)	0.543
TACCTGTCTTGGGTTCTAACCTGTTGCTT (site TACCTGTCTAA)	1.77
TACGACGCTTGGGTTCTAACCTGTTGCCT (site TAAGACGCTAG)	0.0663
TACGACGCTTGGGTTCTAACCTGTTGCCT (site TACGACGCTAG)	0.756
TACGACGCTTGGGTTCTAACCTGTTGCCT (site TAGGACGCTAG)	0.0186
TACGACGCTTGGGTTCTAACCTGTTGCCT (site TATGACGCTAG)	0.128
TACGATACTTGGGTTCTAACCTGTTGCGT (site CTACGACCTCT)	0.0489
